Where “and” joins values, the source holds several entries; their conditions need not be identical. Equal entries are not always repeated.
Assays:
[1] = tested on: full-length luciferase protein produced by suppression of the premature termination codon; assay: Western blot of full-length luciferase after immunoprecipitation (epitope-tagged nonsense constructs); format: cell-based, Human; conditions: printed in the UAAA column of Table 3
Description: The nonsense suppression activity in an assay as described above is shown in the Table 3 below, for a construct with a UAG nonsense mutation at position 190, followed by an adenine nucleotide in-frame, (UAGA); and a construct with a UAA nonsense mutation at position 190, followed by an adenine nucleotide in-frame, (UAAA).
Another assay of the present invention can evaluate compounds that promote nonsense mutation suppression. The luciferase constructs described above in FIG. 1 are engineered to harbor two epitope tags in the N-terminus of the luciferase protein. Based on luciferase protein production, these constructs qualitatively assess the level of translation-readthrough. The presence of the full-length luciferase protein produced by suppression of the premature termination codon is measured by immunoprecipitation of the suppressed luciferase protein (using an antibody against a His tag) followed by western blotting using an antibody against the second epitope (the Xpress™ epitope; Invitrogen®; Carlsbad, Calif.). These constructs are depicted in FIG. 2.
Cells that harbor the constructs of FIG. 2 show increased full-length protein production when treated with a compound of the present invention. After treatment for 20 hours, cells containing the constructs of FIG. 2 are collected and an antibody recognizing the His epitope is used to immunoprecipitate the luciferase protein. Following immunoprecipitation, western blotting is performed using the antibody to the Xpress™ epitope (Invitrogen®; Carlsbad, Calif.) to detect the truncated luciferase (produced when no nonsense suppression occurs) and to detect the full-length protein (produced by suppression of the nonsense codon). Treatment of cells with a test compound produces full-length protein and not a readthrough protein (See e.g. FIG. 3). The readthrough protein is produced if suppression of the normal termination codon occurs. Compounds of the present invention suppress the premature, i.e. nonsense mutation, but not the normal termination codon in the luciferase mRNA.

SMILES	melting point	western blot signal (POS WB) [1]
CCOc1ccc(-c2cnc(-c3cccc(C(=O)O)c3)o2)cc1 [Compound 595]	223 to 224 °C	POSWB
COc1ccc(-c2cnc(-c3ccc(C(=O)O)cc3)o2)cc1OC [Compound 547]	241 to 243 °C	–
CC(C)c1ccc(-c2cnc(-c3cccc(C(=O)O)c3)o2)cc1 [Compound No. 288, 3-[5-(4-isopropylphenyl)-oxazol-2-yl]benzoic acid]	150 to 153 °C	–
CC(C)c1ccc(-c2ncc(-c3cccc(C(=O)O)c3)s2)cc1 [Compound No. 321, 3-[2-(4-isopropylphenyl)thiazol-5-yl]benzoic acid]	237 to 239 °C	–
CC(C)c1ccc(-c2nsc(-c3cccc(C(=O)O)c3)n2)cc1 [Compound No. 326, 3-[3-(4-isopropylphenyl)-[1,2, 4]thiadiazol-5-yl]benzoic acid]	166 to 168 °C	–

Further lines, with some results ahead:

melting point	SMILES	western blot signal (POS WB) [1]
298 to 299 °C and 301 to 302 °C	O=C(O)c1ccc(-c2ncc(-c3ccc(F)cc3F)o2)cc1 [Compound No. 548, 4-[5-(2,4-difluorophenyl)oxazol-2-yl]benzoic acid]	POSWB
293 to 295 °C	O=C(O)c1cccc(-c2cc(-c3ccc(Cl)cc3)on2)c1 [Compound No. 479, 3-[5-(4-chlorophenyl)isoxazol-3-yl]benzoic acid]	POSWB
